This test has as its system CEM cells HIV-1 protection, formazan growth assay. Briefly: NCI AIDS Antiviral Assay. Particulars: for IC50: measured here: growth of uninfected CEM cells. The method, boiled down:
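Human CEM cells, uninfected and HIV-1-infected, received five drug concentrations, and growth was read by soluble formazan assay. Compounds giving at least 50% protection were retested; reproducible 100% protection defined confirmed active.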

“And” between values parts separate entries of the source, which are not always exact repeats. Identical values can stand only once. The source made the active and inactive calls.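 The calls were made as follows: active = compounds giving half or more protection of infected cells from virus-caused growth loss, again on retest; inactive = the rest.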

This note sets out measurements from PubChem BioAssay AID179 (DTP/NCI, 2004).

In the case of `C[CH2][Sn]([Cl])([CH2]C)[CH2]C`, the outcome was inactive.
The term EC50 denotes the concentration needed to bring the measured effect to its halfway point. The term IC50 denotes the concentration that inhibits the measured activity by half. Read a low IC50 as greater potency. `Cc1cccc(Nc2cn(CCOc3ccccc3)c(=O)[nH]c2=O)c1`: the EC50 was > 200 µM and the IC50 was found to be 27.5 µM.
On to `COc1ccc(OC(C(=O)O)C(C)C)c2c1CCCC2=O` (centres undefined), for which the outcome was inactive.
As to `Cn1c(N)c(N=Nc2ccc(S(=O)(=O)Nc3ncccn3)cc2)c(=O)n(C)c1=O`, the EC50 is > 200 µM and the IC50 is > 200 µM.
On to `COC(=O)[C@@H]1c2cc3c(c(O)c2[C@@H](OC2OC(C)C(OC)C(C)(OC)C2OC)C[C@]1(C)O)C(=O)c1c(O)cc2c(c1C3=O)O[C@H]1O[C@]2(C)[C@H](O)[C@@H](N(C)C)[C@@H]1O` (some centres undefined), for which the result was inactive.
For the compound `CCCC(/C=N/N=C(N)N)=N\N=C(N)N`, the EC50 is > 83.2 µM and the IC50 was > 83.2 µM.
With `O=P1(O)Cc2ccccc2-c2ccccc21`, the EC50 was > 200 µM and the IC50 is > 200 µM.
For `Cc1cc(=O)oc2cc(O)cc(OCc3ccccc3)c12`, the EC50 was > 107 µM and the IC50 was 41.7 µM.
In the same order, the values of `Cc1ccc(S(=O)(=O)NCCCSCCO)cc1` are > 871 µM and 5.75 µM.
For `N#COc1ccc(Oc2ccccc2)cc1`, the EC50 is > 24.5 µM and the IC50 is > 24.5 µM.
As for `Cc1cc2ccccc2c[n+]1CC(=O)CC([O-])(C(F)(F)F)C(F)(F)F`, the EC50 is > 200 µM and the IC50 was 95.5 µM.
For `N#C/C(=C\NC(=S)N=Nc1c(O)[nH]c2ccccc12)C(=O)c1ccc2ccccc2c1`, the EC50 was > 200 µM and the IC50 was determined as 120 µM.
`Cc1nc2ccccc2c(=O)n1-c1ccccc1I`: the EC50 is > 100 µM and the IC50 is > 100 µM.
In the case of `CC(C(=O)O)n1c(=O)ssc1=O` (centres undefined), the EC50 was 63.1 µM and the IC50 is 123 µM.
Take `CCCc1cc(=O)[nH]c(SCC(=O)O)n1`: the EC50 was > 200 µM and the IC50 is > 200 µM.
Take `COc1ccc(C2[C@H]3C(=O)N(c4ccc(Cc5ccc(N6C(=O)[C@@H]7ON(c8ccccc8)C(c8ccc(OC)cc8)[C@@H]7C6=O)cc5)cc4)C(=O)[C@H]3ON2c2ccccc2)cc1` (some centres undefined): the EC50 is > 4.68 µM and the IC50 is > 4.68 µM.
For the compound `C=CCCCN1CCCC(C)C1=S` (centres undefined), the EC50 was > 251 µM and the IC50 is > 251 µM.
Regarding `C[N+]1(C)C/C(=C\C=C\c2ccccc2)C(=O)/C(=C/C=C/c2ccccc2)C1`, the EC50 was > 7.76 µM and the half-maximal inhibitory concentration (IC50) was > 7.76 µM.
With `CCOC(=O)c1sc(SSc2sc(C(=O)OCC)c(C)c2[N+](=O)[O-])c([N+](=O)[O-])c1C`, the EC50 was > 200 µM and the IC50 was found to be 138 µM.
For `O=S(=O)(Nc1nc2ccccc2nc1Nc1ccc2ccccc2c1)c1ccccc1` the same measures were > 200 µM and 10.5 µM.
With `Cc1ccc(/C(C#N)=C/c2ccc3c(c2)OCO3)cc1`, the EC50 was > 200 µM and the IC50 came to 10 µM.
For `O=c1ccn(C2OC(CO)C(F)C2F)c(=O)[nH]1` (centres undefined), the EC50 was > 501 µM and the concentration for half-maximal inhibition (IC50) is > 501 µM.
As for `CSCc1nc2ccccc2c(C)[n+]1[O-]`, the EC50 is > 200 µM and the IC50 is > 200 µM.
On to `CN(NC1=NCCO1)c1ccc2ccccc2c1`, for which the EC50 was > 200 µM and the IC50 came to 28.8 µM.
`CCOc1ccccc1NC(=O)C(=O)CC(=O)c1c(C)n([O-])c2ccccc2[n+]1=O`: the EC50 was > 110 µM and the IC50 was > 110 µM.
On to `O=S1(=O)OCCOS(=O)(=O)C1(Br)Br`, for which the EC50 was > 363 µM and the IC50 was > 363 µM.
On to `O=C(NCCOC(=O)OCCNC(=O)NC1CCCCC1)NC1CCCCC1`, for which the EC50 is > 200 µM and the IC50 is > 200 µM.
For `CCOc1ccc(N=NC2C(=O)N(C(=O)CC(=O)Nc3ccc(C)cc3)N=C2C)cc1` (centres undefined), the EC50 was > 200 µM and the IC50 was 10.5 µM.
For `COc1ccc(C(=O)/C=C/c2ccc(OCC#N)cc2)cc1OC` the same measures were > 200 µM and 3.31 µM.
In the case of `COC(=O)c1cc2ccccc2c(=O)s1`, the EC50 was > 16.2 µM and the half-inhibitory concentration (IC50) was > 16.2 µM.
Take `CN(C)Cc1cc(C(=O)/C=C/c2ccc(Cl)cc2)cc(CN(C)C)c1O`: the EC50 was > 200 µM and the IC50 is 9.12 µM.
As to `C/C(=N\O)C(CN(C)C)C(c1ccccc1)c1c(O)c2ccccc2oc1=O` (centres undefined), the EC50 is > 32.4 µM and the IC50 stood at 21.9 µM.
With `COc1ccccc1N=Nc1c(S(=O)(=O)O)cc2cc(NC(=O)Nc3ccc4c(O)c(N=Nc5ccc(S(=O)(=O)O)cc5C)c(S(=O)(=O)O)cc4c3)ccc2c1O`, the result was active.
As for `COc1ccc(C(=O)/C=C/c2ccc3c(c2)OCO3)c(O)c1`, the EC50 is > 200 µM and the IC50 was 81.3 µM.
For the compound `N#CNC(=NCc1ccccc1)NCc1ccccc1`, the EC50 is 200 µM and the IC50 worked out at 339 µM.
With `O=c1nc2n(c3nsnc13)CCO2`, the EC50 was > 132 µM and the IC50 was > 132 µM.
As to `CCC1CCC23OOC(C)(CCC2C1)O[C@@H]3OC` (some centres undefined), the EC50 was > 49 µM and the IC50 is > 49 µM.
As for `Cc1cn(C(C)OCCN(O)C(=O)Oc2ccccc2)c(=O)[nH]c1=O` (centres undefined), the EC50 is > 200 µM and the IC50 is > 200 µM.
For the compound `O=[N+]([O-])c1cc(Cl)ccc1S(=O)(=O)c1ccccc1`, the EC50 was > 200 µM; the IC50 was 30.2 µM and 55 µM.
`C1COC2SC3=C(SC(=C4SC5=C(SCCS5)S4)S3)SC2O1` (centres undefined): the EC50 is > 100 µM and the IC50 was > 100 µM.
For the compound `O=P(CCOc1ccccc1OCCP(=O)(c1ccccc1)c1ccc2c(c1)OCCOCCOCCOCCO2)(c1ccccc1)c1ccc2c(c1)OCCOCCOCCOCCO2` (centres undefined), the EC50 was > 263 µM and the IC50 is > 263 µM.
Take `CCCCC1(c2sccc2C(O)(C(F)F)C(F)(F)F)NC(C)(C)CO1` (centres undefined): the EC50 is > 200 µM and the concentration for half-maximal inhibition (IC50) is 126 µM.
In the same order, the values of `Cc1ccccc1N(C)S(=O)(=O)c1ccccc1[N+](=O)[O-]` are > 200 µM and 38.9 µM.
For `Cc1c(C#N)c(=N)oc2ccccc12`, the EC50 was > 200 µM and the IC50 was determined as 115 µM.
Turning to `CCn1cc2c(=O)n3ncn(-c4ccc(Br)cc4)c3nc2n1`, the result was inactive.
Regarding `CC1(C)C(=O)/C=C\C(=O)C(C)(C)C(=O)/C=C\C(=O)C(C)(C)C(=O)/C=C\C(=O)C(C)(C)C(=O)/C=C\C1=O`, the result was inactive.
In the case of `C=CCn1c(-c2cc(C(C)(C)C)c(O)c(C(C)(C)C)c2)cs/c1=N\C(P(=O)(O)O)P(=O)(O)O`, the EC50 was > 200 µM and the IC50 turned out to be 21.4 µM.
In the same order, the values of `CCOC(=O)c1cc(C2=CCNC2=O)c(-c2cc(C)no2)[nH]1` are > 200 µM and 33.1 µM.
As for `S=c1ncc2c([nH]1)C1c3ccccc3C2c2ccccc21`, the EC50 was > 200 µM and the IC50 came to 120 µM.
As for `CCCCCc1cc(OC(=O)c2c(O)cc(OC)cc2CCCCC)cc(O)c1C(=O)O`, the EC50 is > 295 µM and the IC50 amounted to 29.5 µM.
In the case of `Cc1cccc(NC(=O)NCCOC(=O)OCCNC(=O)Nc2cccc(C)c2C)c1C`, the EC50 was > 200 µM and the IC50 is > 200 µM.
With `O=[N+]([O-])/C(C(Cl)=C(Cl)Cl)=C1\NCCS1`, the EC50 was > 200 µM and the IC50 is > 100 µM.
On to `Brc1nc2c3ccccc3ncn2c1Br`, for which the EC50 is > 30.2 µM and the 50% inhibitory concentration (IC50) worked out at 14.8 µM.
Regarding `C=CCOCn1ccc(N)nc1=O`, the outcome was inactive.
Consider `O=[N+]([O-])c1ccccc1NC1CCN(CCCC2(c3ccc(F)cc3)OCCO2)CC1`, for which the EC50 is > 200 µM and the half-inhibitory concentration (IC50) stood at 12.9 µM.
As to `C[Si](C)(OCCS(=O)(=O)O)C1S(=O)(=O)OCCOS1(=O)=O`, the EC50 is > 200 µM and the IC50 was determined as 60.3 µM.
Turning to `COC1/C=C\OC2(C)Oc3c(C)c(O)c4c(O)c(c(/C=N\OCCCc5ccccc5)c(O)c4c3C2=O)NC(=O)/C(C)=C\C=C/C(C)C(O)C(C)C(O)C(C)C(OC(C)=O)C1C` (centres undefined), the EC50 is > 200 µM and the IC50 came to 6.61 µM.
With `CC(CCC(=O)O)c1ccc(Br)cc1` (centres undefined), the outcome was inactive.
Consider `O=C1Sc2ccccc2C(=O)N2CSCC12` (centres undefined), for which the result was inactive and the half-inhibitory concentration (IC50) is > 200 µM.
Regarding `CCC1C(C)C=CN1c1nc(N)nc(NS(=O)(=O)c2cc(C)c(Cl)cc2S)n1` (centres undefined), the EC50 was 129 µM and the IC50 is > 200 µM.
On to `Cc1cc(N(CCC#N)CCC#N)ccc1/C=C(\NC(=O)/C=C/c1ccccc1)C(=O)Nc1ccc(Cl)cc1`, for which the EC50 was > 13.5 µM and the IC50 was > 13.5 µM.
With `COc1ccc(C(C)NNC(=O)c2ccncc2)c(OC)c1` (centres undefined), the EC50 is > 200 µM and the IC50 was 29.5 µM.
As for `COc1ccc2nc3ccc(OC)cc3c(SCc3ccccc3)c2c1`, the EC50 was > 200 µM and the half-inhibitory concentration (IC50) is > 100 µM.
`Cc1cc(-c2cccc3ccccc23)c(C#N)c(=S)n1C1OC(CO)C(O)C(O)C1O` (centres undefined): the EC50 is > 200 µM and the IC50 was determined as 66.1 µM.
For `O=S(=O)(Nc1nnc2ccc3ccccc3n12)c1ccc(Cl)cc1S` the same measures were > 200 µM and 105 µM.
In the same order, the values of `COc1cccc(-n2nnc3c(N)nc(N)nc32)c1` are > 200 µM and > 200 µM.
In the case of `CN(C)CCNCc1ccc(-c2cccc(-c3ccc(CNCCN(C)C)cc3)n2)cc1`, the EC50 is > 204 µM and the concentration for half-maximal inhibition (IC50) amounted to 2.45 µM.
With `Cc1ccc(S(=O)(=O)N2CCN(CCN(C)CCN3CCN(S(=O)(=O)c4ccc(C)cc4)CC3)CC2)cc1`, the EC50 was > 100 µM and the IC50 stood at 46.8 µM.
With `CC1CN1P(=O)(OCCC#N)N1CC1C` (centres undefined), the EC50 was > 200 µM and the IC50 was > 200 µM.
Regarding `COc1ccc2c(c1)N(S(=O)(=O)c1ccc(C)cc1)C[C@@H]1c3cc(O)c(OCc4ccccc4)cc3O[C@H]21`, the result was inactive.
In the case of `O=C(O)CCSC(=S)Nc1ccccc1`, the outcome was inactive.
On to `COc1ccc2c(c1)CCN=C2c1ccccc1CCCCl`, for which the EC50 was > 200 µM and the IC50 was 2.34 µM.
